Data reported in patent US20160220569A1, “CDK4/6 Inhibitor Dosage Formulations For The Protection Of Hematopoietic Stem And Progenitor Cells During Chemotherapy” (G1 Therapeutics, Inc., priority 2015, published 2016).
Read-outs that look alike come from different tables or passages of the source.

What was measured:
[1] = Compound 1 PK dosed Days 1-5 with topotecan; type: in vivo, human; settings: human, plasma, intravenous
Description: Analysis of plasma concentration versus time data for calculation of standard pharmacokinetic (PK) parameters following intravenous infusion administration was conducted using Phoenix WinNonlin version 6.3 using a nominal infusion duration and scheduled blood sampling times.

[2] = Nonclinical IV and oral pharmacokinetics in dogs; type: in vivo; settings: dog, plasma

With `CN1CCN(c2ccc(Nc3ncc4cc5n(c4n3)C3(CCCCC3)CNC5=O)nc2)CC1` [Compound 1, 2′-((5-(4-methylpiperazin-1-yl)pyridin-2-yl)amino)-7′,8′-dihydro-6′H-spiro[cyclohexane-1,9′-pyrazino[1′,2′:1,5]pyrrolo[2,3-d]pyrimidin]-6′-one] the AUC(0-inf) ([1]; 200 mg/m^2 with Topotecan 1.25 mg/m^2 (Cohort 2), Day 1, Mean, read-out: AUCinf) was 2490 ng·h/mL, the half-life ([1]; 200 mg/m^2 with Topotecan 1.25 mg/m^2 (Cohort 2), Day 1, Mean, read-out: t½ (converted)) was 7.87 h and the AUC(0-inf) ([1]; 200 mg/m^2 with Topotecan 1.25 mg/m^2 (Cohort 2), Day 1, Median, read-out: AUCinf) was 2430 ng·h/mL. The half-life ([1]; 200 mg/m^2 with Topotecan 1.25 mg/m^2 (Cohort 2), Day 1, Median, read-out: t½ (converted)) was 8.67 h, the AUC(0-inf) ([1]; 200 mg/m^2 with Topotecan 1.25 mg/m^2 (Cohort 2), Day 1, individual subjects, read-out: AUCinf) was 2320 ng·h/mL and the Cmax ([1]; 200 mg/m^2 with Topotecan 1.25 mg/m^2 (Cohort 2), Day 1, individual subjects, read-out: Cmax) was 1000 ng/mL. For the same molecule, the half-life ([1]; 200 mg/m^2 with Topotecan 1.25 mg/m^2 (Cohort 2), Day 1, individual subjects, read-out: t½ (converted)) was 6.14 h, the Cmax ([1]; 200 mg/m^2 with Topotecan 1.25 mg/m^2 (Cohort 2), Day 4, Geometric Mean, read-out: Cmax) was 739 ng/mL and the half-life ([1]; 200 mg/m^2 with Topotecan 1.25 mg/m^2 (Cohort 2), Day 4, Geometric Mean, read-out: t½ (converted)) was 8.84 h. For the same molecule, the Cmax ([1]; 200 mg/m^2 with Topotecan 1.25 mg/m^2 (Cohort 2), Day 4, Mean, read-out: Cmax) was 752 ng/mL, the half-life ([1]; 200 mg/m^2 with Topotecan 1.25 mg/m^2 (Cohort 2), Day 4, Mean, read-out: t½ (converted)) was 8.95 h and the half-life ([1]; 200 mg/m^2 with Topotecan 1.25 mg/m^2 (Cohort 2), Day 4, Median, read-out: t½ (converted)) was 9.1 h. For the same molecule, the Cmax ([1]; 200 mg/m^2 with Topotecan 1.25 mg/m^2 (Cohort 2), Day 4, individual subjects, read-out: Cmax) was 904 ng/mL, the half-life ([1]; 200 mg/m^2 with Topotecan 1.25 mg/m^2 (Cohort 2), Day 4, individual subjects, read-out: t½ (converted)) was 7.15 h and the AUC(0-inf) ([1]; 200 mg/m^2 with Topotecan […]^2 (Cohort 1), Day 1, Geo. Mean, read-out: AUCinf) was 2120 ng·h/mL. The Cmax ([1]; 200 mg/m^2 with Topotecan […]^2 (Cohort 1), Day 1, Geo. Mean, read-out: Cmax) was 932 ng/mL, the half-life ([1]; 200 mg/m^2 with Topotecan […]^2 (Cohort 1), Day 1, Geo. Mean, read-out: t½ (converted)) was 5.91 h and the AUC(0-inf) ([1]; 200 mg/m^2 with Topotecan […]^2 (Cohort 1), Day 1, Mean, read-out: AUCinf) was 2140 ng·h/mL. For the same molecule, the Cmax ([1]; 200 mg/m^2 with Topotecan […]^2 (Cohort 1), Day 1, Mean, read-out: Cmax) was 955 ng/mL, the half-life ([1]; 200 mg/m^2 with Topotecan […]^2 (Cohort 1), Day 1, Mean, read-out: t½ (converted)) was 5.92 h and the AUC(0-inf) ([1]; 200 mg/m^2 with Topotecan […]^2 (Cohort 1), Day 1, Median, read-out: AUCinf) was 2140 ng·h/mL. The Cmax ([1]; 200 mg/m^2 with Topotecan […]^2 (Cohort 1), Day 1, Median, read-out: Cmax) was 955 ng/mL, the half-life ([1]; 200 mg/m^2 with Topotecan […]^2 (Cohort 1), Day 1, Median, read-out: t½ (converted)) was 5.92 h and the AUC(0-inf) ([1]; 200 mg/m^2 with Topotecan […]^2 (Cohort 1), Day 1, individual subjects, read-out: AUCinf) was 1840 ng·h/mL. The half-life ([1]; 200 mg/m^2 with Topotecan […]^2 (Cohort 1), Day 1, individual subjects, read-out: t½ (converted)) was 5.6 h, the Cmax ([1]; 200 mg/m^2 with Topotecan […]^2 (Cohort 1), Day 4, Geometric Mean, read-out: Cmax) was 993 ng/mL and the half-life ([1]; 200 mg/m^2 with Topotecan […]^2 (Cohort 1), Day 4, Geometric Mean, read-out: t½ (converted)) was 7.98 h. The Cmax ([1]; 200 mg/m^2 with Topotecan […]^2 (Cohort 1), Day 4, Mean, read-out: Cmax) was 999 ng/mL, the half-life ([1]; 200 mg/m^2 with Topotecan […]^2 (Cohort 1), Day 4, Mean, read-out: t½ (converted)) was 8.06 h and the Cmax ([1]; 200 mg/m^2 with Topotecan […]^2 (Cohort 1), Day 4, Median, read-out: Cmax) was 999 ng/mL. For the same molecule, the half-life ([1]; 200 mg/m^2 with Topotecan […]^2 (Cohort 1), Day 4, Median, read-out: t½ (converted)) was 8.06 h, the half-life ([1]; 200 mg/m^2 with Topotecan […]^2 (Cohort 1), Day 4, individual subjects, read-out: t½ (converted)) was 6.96 h and the AUC(0-inf) ([1]; Cohort 1 (Topotecan […]^2), Compound 1 200 mg/m^2, Day 1, mean, read-out: AUCinf averaged) was 2140 ng·h/mL. The Cmax ([1]; Cohort 1 (Topotecan […]^2), Compound 1 200 mg/m^2, Day 1, mean, read-out: Cmax averaged) was 955 ng/mL, the half-life ([1]; Cohort 1 (Topotecan […]^2), Compound 1 200 mg/m^2, Day 1, mean, read-out: Half-lives averaged (converted)) was 5.92 h and the half-life ([1]; Cohort 1 (Topotecan […]^2), Compound 1 200 mg/m^2, Day 4, mean, read-out: Half-lives averaged (converted)) was 8.06 h. The Cmax ([1]; Cohort 1 (Topotecan […]^2), Compound 1 200 mg/m^2, Day 4, mean, read-out: average Cmax) was 999 ng/mL, the AUC(0-inf) ([1]; Cohort 2 (Topotecan 1.25 mg/m^2), Compound 1 200 mg/m^2, Day 1, mean, read-out: AUCinf averaged) was 2490 ng·h/mL and the Cmax ([1]; Cohort 2 (Topotecan 1.25 mg/m^2), Compound 1 200 mg/m^2, Day 1, mean, read-out: Cmax averaged) was 904 ng/mL. For the same molecule, the half-life ([1]; Cohort 2 (Topotecan 1.25 mg/m^2), Compound 1 200 mg/m^2, Day 1, mean, read-out: Half-lives averaged (converted)) was 7.87 h, the half-life ([1]; Cohort 2 (Topotecan 1.25 mg/m^2), Compound 1 200 mg/m^2, Day 4, mean, read-out: Half-lives averaged (converted)) was 8.95 h and the Cmax ([1]; Cohort 2 (Topotecan 1.25 mg/m^2), Compound 1 200 mg/m^2, Day 4, mean, read-out: average Cmax) was 752 ng/mL. The concentration at 24.5 h ([1]; Cohort 2 (Topotecan 1.25 mg/m^2), Day 1, mean, read-out: concentration at 24.5 hours after the start of infusion, averaging) was 19.5 ng/mL, the concentration at 24.5 h ([1]; Cohort 2 (Topotecan 1.25 mg/m^2), Day 4, mean, read-out: concentration at 24.5 hours after dosing, averaged) was 22.7 ng/mL and the AUC(0-inf) ([1]; Cohort 3 (Topotecan 0.75 mg/m^2), Compound 1 200 mg/m^2, Day 1, mean, read-out: AUCinf averaged) was 2200 ng·h/mL. For the same molecule, the Cmax ([1]; Cohort 3 (Topotecan 0.75 mg/m^2), Compound 1 200 mg/m^2, Day 1, mean, read-out: Cmax averaged) was 1140 ng/mL, the half-life ([1]; Cohort 3 (Topotecan 0.75 mg/m^2), Compound 1 200 mg/m^2, Day 1, mean, read-out: Half-lives averaged (converted)) was 7.4 h and the half-life ([1]; Cohort 3 (Topotecan 0.75 mg/m^2), Compound 1 200 mg/m^2, Day 4, mean, read-out: Half-lives averaged (converted)) was 8.81 h. For the same molecule, the Cmax ([1]; Cohort 3 (Topotecan 0.75 mg/m^2), Compound 1 200 mg/m^2, Day 4, mean, read-out: average Cmax) was 1330 ng/mL, the concentration at 24.5 h ([1]; Cohort 3 (Topotecan 0.75 mg/m^2), Day 1, mean, read-out: concentration at 24.5 hours after the start of infusion, averaging) was 13.3 ng/mL and the concentration at 24.5 h ([1]; Cohort 3 (Topotecan 0.75 mg/m^2), Day 4, mean, read-out: concentration at 24.5 hours after dosing, averaged) was 18.2 ng/mL. For the same molecule, the half-life ([2]; both sexes, after IV administration) was about 4 h, the bioavailability ([2]; oral 10 mg/kg) was 30.2% and the bioavailability ([2]; oral 90 mg/kg) was 17.1%.
